Experimental data from patent publication US20100087399A1 (priority 2007, published 2010).
Where “and” joins values, the source holds several entries; their conditions need not be identical. Identical values can stand only once.

Tests used:
NF κB [1] = test: NF κB activation caused by chemotherapeutic agent in OVCAR-3 cells; assay type: cell-based, human; set-up: level of active NF κB (as percents of control) in the absence of CMA: concentration or dose not given beside the values; conditions: for level of active NF κB (as percents of control) in the presence of CMA: its salt or ester 1 × 10^−12 M
Method: (§1) The level of active NF κB in cell extract was measured with StressXpress NF κB, p50 ELISA Kit (StressGen, cat. No EKS-445) and luminescent spectrophotometer SM 2203 (Solar, Belarus).
The experiments were performed as described in Example 1. The human ovarian carcinoma cell lines OVCAR-3 was used. The cells were incubated at 37° C. in RPMI 1640 medium supplemented with 10% embryonic calf serum. […] Corresponding chemical agent or the vehicle (control) was added to the culture medium simultaneously with CMA, its salt or ester (1×10^−12 M). The cells were separated by centrifugation. The level of active NF κB was assessed in nuclear lysate.

SK-OV-3 cells = test: Survival of nude mice intraperitoneally injected with SK-OV-3 cells; assay type: in vivo; conditions: 0 mg/kg CMA
NF κB [2] = test: Level of active NF κB in cancer cells of ascitic fluid of SK-OV-3 tumor-bearing nude mice; assay type: in vivo; conditions: 0 mg/kg CMA
Method: as §1
To study the ability of different amounts of CMA to inhibit the NF κB activity, tumor growth and to increase the survival rate in combination with a chemotherapeutic agent, BALB/c female nude mice (6 to 8 weeks of age) were intraperitoneally injected with SK-OV-3 cells (1×10^7 cells/0.5 ml media/mouse). The all mice were divided into the several groups of animals (32 animals per group) which were treated with different doses of CMA, its salts or its ester. All mice were injected also ether with vehicle (diluent) or with chemotherapeutic agent or with or combinations of chemotherapeutic agent. Some groups were injected additionally with one or other aromatase inhibior, along with chemotherapeutic agent. Cisplatin (CP) was administered at dose 5 mg/kg intraperitoneally once weekly for the first 3 weeks; Doxorubicin (Dox) was given 8 mg/kg intravenously on days 0 and 7; Paclitaxel (Pcl) was injected intravenously at dose 10 mg/kg body weight thrice weekly, on alternate days for 4 weeks; 10 mg/kg/day. Toremifen was administered per os at dose 10 mg/kg/day in starch gel. Anastozole was injected subcutaneously with 5 μg of […] in 0.1 mL of PBS. CMA was administered once a day on each second day.
Also, the day of 50% survival rate was scored for other 16 animals in each group group. The serum alpha interferon (alpha IFN) level was measured 2 hours after first administration of CMA, its salts or it ester. Mouse IFN-alpha was measured in serum was detected (in pg/ml) using the enzyme-linked immunosorbent assay kit purchased from PBL Biomedical Laboratories (USA, Piscataway, N.J.).

alpha interferon = test: Serum alpha interferon in SK-OV-3 tumor-bearing nude mice (ELISA); assay type: in vivo; conditions: 0 mg/kg CMA
ovarian cancer [3] = test: Clinical case reports of combined therapy of ovarian cancer (Examples 7-9); assay type: in vivo, human; conditions: Example 7: stage III patient; 2 courses of cisplatin alone
NF κB [4] = test: Level of active NF κB in primary human ovarian cancer cells from ascitic fluid (StressXpress NF κB p50 ELISA); assay type: cell-based; conditions: 8 hours
ovarian cancer [5] = conditions: intraperitoneal alpha-interferon in combination with carboplatinum; cited from earlier work
ovarian cancer [6] = conditions: gamma-interferon added to cisplatinum+cyclophosphamide; cited from earlier work

N.N.[Cl][Pt][Cl] [Cisplatin, cisplatin]
level of active NF κB (as percents of control) in the absence of CMA (NF κB [1]; Cisplatin alone): 117% and 121% and 120% and 119% and 118% and 125% and 122%
day when 50% of animals in the group were still alive (SK-OV-3 cells; Cisplatin (CP) alone): 34 days and 44 days and 42 days
level of NF kB (mean) (NF κB [2]; Cisplatin (CP) alone): 380 percent from the control and 356 percent from the control and 420 percent from the control
interferon level (mean) (alpha interferon; Cisplatin (CP) alone): 4 pg/mL and 2 pg/mL and 3 pg/mL
clinical outcome (ovarian cancer [3]): No therapy effects were observed

O=P1(N(CCCl)CCCl)NCCCO1 (centres unmarked) [Cyclophosphamide, cyclophosphamide]
level of active NF κB (as percents of control) in the absence of CMA (NF κB [1]; Cyclophosphamide alone): 221% and 217% and 210% and 214%

COc1cccc2c1C(=O)c1c(O)c3c(c(O)c1C2=O)C[C@@](O)(C(=O)CO)C[C@@H]3O[C@H]1C[C@H](N)[C@H](O)[C@H](C)O1 [Doxorubicin, doxorubicin]
level of active NF κB (as percents of control) in the absence of CMA (NF κB [1]; Doxorubicin alone): 524% and 538% and 550% and 497% and 562% and 540% and 531%
day when 50% of animals in the group were still alive (SK-OV-3 cells; Doxorubicin (Dox) alone): 36 days and 37 days and 43 days
level of NF kB (mean) (NF κB [2]; Doxorubicin (Dox) alone): 450 percent from the control and 470 percent from the control and 430 percent from the control
interferon level (mean) (alpha interferon; Doxorubicin (Dox) alone): 3 pg/mL and 4 pg/mL and 5 pg/mL

CC(=O)O[C@H]1C(=O)[C@@]2(C)[C@H]([C@H](OC(=O)c3ccccc3)[C@]3(O)C[C@H](OC(=O)[C@H](O)[C@@H](NC(=O)c4ccccc4)c4ccccc4)C(C)=C1C3(C)C)[C@]1(OC(C)=O)CO[C@@H]1C[C@@H]2O [Paclitaxel, paclitaxel, reference compound]
day when 50% of animals in the group were still alive (SK-OV-3 cells; Paclitaxel (Pcl) alone): 41 days and 40 days and 38 days
level of NF kB (mean) (NF κB [2]; Paclitaxel (Pcl) alone): 420 percent from the control and 411 percent from the control and 442 percent from the control
interferon level (mean) (alpha interferon; Paclitaxel (Pcl) alone): 8 pg/mL and 6 pg/mL and 5 pg/mL

CCCOC(=O)Cn1c2ccccc2c(=O)c2ccccc21 [PropCMA]
level of active NF κB (as percents of control) in the presence of CMA (NF κB [1]; 5-FU + CMA): 86%
level of active NF κB (as percents of control) (NF κB [1]; CMA, its salt or ester 1 × 10^−12 M + Vechicle): 84%
level of active NF κB (as percents of control) in the presence of CMA (NF κB [1]; Cisplatin + CMA): 66%
level of active NF κB (as percents of control) in the presence of CMA (NF κB [1]; Cyclophosphamide + CMA): 95%
level of active NF κB (as percents of control) in the presence of CMA (NF κB [1]; Doxorubicin + CMA): 178%
active NF κB (in percents of control) (NF κB [4]; 1 × 10^−10 M, Patient 1): 32%/10
active NF κB (in percents of control) (NF κB [4]; 1 × 10^−10 M, Patient 2): 31%/20
active NF κB (in percents of control) (NF κB [4]; 1 × 10^−10 M, Patient 3): 36%/20
active NF κB (in percents of control) (NF κB [4]; 1 × 10^−12 M, Patient 1): 68%/10
active NF κB (in percents of control) (NF κB [4]; 1 × 10^−12 M, Patient 2): 59%/20
active NF κB (in percents of control) (NF κB [4]; 1 × 10^−12 M, Patient 3): 64%/20
active NF κB (in percents of control) (NF κB [4]; 1 × 10^−13 M, Patient 1): 89%/0
active NF κB (in percents of control) (NF κB [4]; 1 × 10^−13 M, Patient 2): 91%/0
active NF κB (in percents of control) (NF κB [4]; 1 × 10^−13 M, Patient 3): 81%/0

alpha-interferon
efficacy in respect of ovarian cancer (ovarian cancer [5]): did not prove any efficacy

gamma-interferon: cytokine immunomodulator with antiviral and antitumor activity
number of patients who had no progression within the 3 year period (ovarian cancer [6]): 51%
